The results in this text go back to the NIST ThermoML archive (doi:10.1016/j.jct.2017.03.011).

The nature of data set [1]: Molar enthalpy of transition or fusion. The note with it: DSC.

Structures are written as SMILES. Numbers after ± are expanded uncertainties.

`O=C1COC(=O)CO1` [1,4-dioxane-2,5-dione]: under “Crystal 1, DTA”, the Normal melting temperature was found to be 83.00 ± 2 °C. Under “Crystal 2, DSC”, the Triple point temperature was 316.55 ± 2.1 K. Besides, the “Molar enthalpy of transition or fusion” value in data set [1] (Crystal 1) was determined as 3.28 ± 0.335 kcal/mol; in data set [1] (Crystal 2), 0.416 ± 0.0478 kcal/mol.
